This note sets out measurements from patent US4136186A, “Thieno[3,2-c]pyridine derivatives” (Parcor, priority 1976, dated 1979).

Experiment [1] relates to collagen-induced blood-platelet aggregation. Put plainly: Collagen-induced blood-platelet aggregation (plasma of orally treated rats). It is filed as in vivo, rats of Wistar strain. The settings on record: Rattus norvegicus, oral 100 mg/kg, 3 hours after treatment, collagen (bovine tendon extract), read-out: Percent inhibition of blood-platelet aggregation, Collagen. How it is done: (§1) A blood sample is taken from the jugular vein of rats of Wistar strain. From this citrated blood, and after centrifugation, is reconstituted a plasma containing 600,000 ± 20,000 platelets per mm^3 which will be used in all aggregation determinations. 0.4 ml plasma is placed in a siliconized tube provided with a magnetic bar, which is also siliconized. The tube is introduced into an aggregometer connected with an optical density variation recorder. When light transmission has reached a stable value, 0.5 ml of a solution containing 10 μM A.D.P. (adenosine-diphosphate) are introduced in the tube. Blood-platelet aggregation then induces an increase of light transmission followed by a decrease subsequent to the deaggregation phase. The thus determined maximum variation of optical density characterizes the intensity of the aggregation. (b) Determination of collagen-induced blood-platelet aggregation The A.D.P. solution is substituted with a collagen solution (bovine tendon extract). Different groups of 20 rats are used, each group being administered orally a test derivative, at a dosage of 100 mg/kg. The results obtained in the course of tests a) and b) are tabulated in following Table I which indicates the percent inhibition of blood-plateletaggregation obtained, with respect to the control, 3 hours after treatment.

Experiment [2] can be described thus: Potentiation of hypnotics (infrahypnotic sodium pentobarbital). The settings on record: mice, oral 50 mg/kg, thirty minutes prior to i.p. infrahypnotic sodium pentobarbital. The format is in vivo. How it is done:
In addition, the compounds of the formula (I) potentiate very markedly the effect of hypnotics. Indeed, on oral administration to different groups of mice, at a dosage of 50 mg/kg, thirty minutes prior to intraperitoneal injection of an infrahypnotic dosage of sodium pentobarbital, they produce, with respect to the untreated reference animals, a marked potentiation of the barbiturate.

The test system of experiment [3] is ovalbumin-induced systemic edema. Put plainly: Ovalbumin-induced systemic edema method. It is filed as in vivo. The settings on record: Rattus norvegicus, rats, oral 100 mg/kg one hour prior to and simultaneously with ovalbumin. How it is done: (b) Ovalbumin-induced systemic edema method Rats are administered a simultaneous intraperitoneal injection of 1 ml ovalbumin and 0.5 ml of a 1% aqueous Evans Blue solution. The animals of the treated group are additionally administered orally 100 mg/kg of the test derivative, one hour prior to and simultaneously with said ovalbumin administration. The intensity of the phenomenon thus induced is scored according to a scale from 1 to 5, according to the progress of the inflammatory syndrome. Thus are determined with respect to the control group the mean intensity and the percent decrease of the edema reaction, as a function of time. The percent anti-inflammatory activity obtained 2 hours and 3 hours, respectively, after ovalbumin injection, is tabulated in following Table III: […]

The test system of experiment [4] is carrageenin-induced edema. The experiment can be described thus: Localised carrageenin-induced edema method. Conditions: Rattus norvegicus, rats, oral 100 mg/kg at -1, 0, 1 and 2.5 hours. It is filed as in vivo. How it is done:
(a) Localised carrageenin-induced edema method: A 1% carrageenin solution (0.1 ml) is injected in the metatarsal flexor muscles of the right hind limb of rats at time 0. The animals of the treated group are additionally administered orally 100 mg/kg of the test derivative, respectively one hour prior to and then simultaneously with the phlogogenic agent, and then one hour and 2.5 hours thereafter. The percent antiinflammatory activity, as a function of time, is determined with respect to the control group by measurements effected with a ROCH micrometer at times 0, one hour, two hours, three hours and five hours after carrageenin administration.

For experiment [5], the system named is A.D.P.-induced blood-platelet aggregation. Put plainly: A.D.P.-induced blood-platelet aggregation (plasma of orally treated rats). Conditions: Rattus norvegicus, oral 100 mg/kg, 3 hours after treatment, 10 μM A.D.P., read-out: Percent inhibition of blood-platelet aggregation, A.D.P. It is filed as in vivo, rats of Wistar strain. How it is done: as §1, with “determinations. (a) Determination of A.D.P.-induced blood-platelet aggregation” for “determinations.”, “aggregation.” for “aggregation. (b) Determination of collagen-induced blood-platelet aggregation The A.D.P. solution is substituted with a collagen solution (bovine tendon extract).”

Read-outs that look alike come from different tables or passages of the source.

As to `CCCCOC(=O)c1sc2c(c1O)CN(Cc1ccccc1Cl)CC2` [Derivative n°10, 2-Butoxycarbonyl-5-o-chlorobenzyl-3-hydroxy-4,5,6,7-tetrahydro-thieno[3,2-c]pyridine], the inhibition in vivo at 100 mg/kg amounted to 90.2% in experiment [1]; 50% in experiment [3] (2 hours after ovalbumin injection, read-out: Percent anti-inflammatory activity after 2 hours); 59% in experiment [3] (3 hours after ovalbumin injection, read-out: Percent anti-inflammatory activity after 3 hours); 37% in experiment [4] (1 hour after carrageenin, read-out: Percent anti-inflammatory activity after 1 hour); 42% in experiment [4] (2 hours after carrageenin, read-out: Percent anti-inflammatory activity after 2 hours); 48% in experiment [4] (3 hours after carrageenin, read-out: Percent anti-inflammatory activity after 3 hours). Moreover, the inhibition in vivo at 100 mg/kg in experiment [4] (5 hours after carrageenin, read-out: Percent anti-inflammatory activity after 5 hours) worked out at 51%; in experiment [5], 63.6%. The “percent animals put to sleep” value in experiment [2] is 90%.
